This is an account of results in patent EP1800684A1, “Novel alkyl phospholipid derivatives and uses thereof” (Zentaris GmbH, priority 2005, dated 2007).

What all share (format): cell-based
The subject of test [1] is RKOp21 (human colon adenocarcinoma) cells. The experiment in a line: XTT cytotoxicity assay, RKOp21 cells. Conditions: 48 h, 2 days of continuous drug exposure. How it is done: (§1) Human tumor cell lines KB/HeLa (ATCC CCL17, human cervix carcinoma), PC3 (ATCC CRL1435, human prostate carcinoma) and RKOp21 (human colon adenocarcinoma) cells were used in an automated XTT screening assay for the assessment of cytotoxicity.
(§2) The XTT assay quantifies cellular metabolic activity which correlates with cell viability and cell number. Test compounds (selected compounds of the invention and known substances as controls) are dissolved in culture medium at 600µM and added to the tumor cells in 10 different concentrations in a semi-logarithmic fashion starting from 100 µM as highest concentration.
(§3) 48h later cellular metabolic activity of cells treated with test compounds is quantified by measurement of the absorbance at 490nm (conversion of XTT dye) in comparison to untreated control cells (100% viability).
(§4) KB/HeLa and PC3 cells were cultivated in RPMI medium supplemented with 10% heat inactivated fetal calf serum, 2 mM glutamine, 100 U/ml penicillin, and 100 µg/ml streptomycin. RKOp21 cells were grown in DMEM supplemented with 10% heat inactivated fetal calf serum, 2 mM glutamine, 100 U/ml penicillin, and 100 µg/ml streptomycin. All cells were cultured at 37°C in 5% CO2 humidified air.
(§5) On the first day of the experiment cells were harvested from exponential phase cultures by trypsination, counted and plated into 96 well flat-bottom micro titer plates depending on the cell line as listed below:
(§6) After a 24h recovery to allow the cells to resume exponential growth, the test compounds were diluted immediately prior to use and transferred in 25µl volume to the wells.
(§7) Following 2 days of continuous drug exposure 50µl of freshly prepared XTT-PMS solution (2% […] PMS in PBS + 98% 1 mg/ml XTT in RPMI 1640 without phenol red) was added to the wells. To measure the proportion of living cells, the cells were incubated for 3 h with XTT-PMS reagent at 37°C, 5% CO2, humidified atmosphere allowing to form the formazan salt. The amount of soluble formazan salt produced by cellular reduction of XTT is quantified by measuring the absorbance at 490nm using the Biomek® 2000 ELISA plate reader.
(§8) %-inhibition (cytotoxicity) of each test compound was calculated in relation to untreated control cells. Inhibition curves were generated and IC50 values calculated by using GraphPad Prism.

Test [2] relates to Candida albicans (ATCC 90028). Description: Anti-fungal susceptibility test (microdilution), fungus B. Conditions: Candida albicans, ATCC90028, no visible growth after 48 hours at 35° C, read-out: MIC. How it is done:
(§9) The antifungal activities of the test compounds (compounds of the invention and known prior art compounds) were measured according to standard microdilution methods (Cryptococcus/Aspergillus: Ghannoum et al., Journal of Clinical Microbiology 1992, 30 (11): 2881-2886; Candida: Reference method for broth dilution susceptibility testing of yeast: proposed standard, NCCLS document M27-P, National Committee for Clinical Laboratory Standards 1992, Villanova, Pa).
(§10) A serial dilution series starting from 64 µg/mL test compound per well down to 0.125 µg/mL test compound per well was applied for each test compound on each fungus. The MIC of each compound was defined as the concentration which produces no visible growth after 48 hours (Candida) and 72 hours (Cryptococcus, Aspergillus) of culture at 35° C.
(§11) The following fungi were assessed: • A) Candida albicans (ATCC 10231) • B) Candida albicans (ATCC 90028) • C) Candida albicans (strain TS3, Shrikantha et al., Journal of Bacteriology 2000, 182(6):1580-1591) • D) Candida parapsilosis (ATCC 22019) • E) Cryptocoocus neoformans (ATCC 90112) • F) Cryptocoocus neoformans (strain H99; Ganendren et al., Antimicrobial Agents and Chemotherapy, 2004, 48(5):1561-1569) • G) Cryptocoocus gattii (ATCC 32608) • H) Aspergillus fumigatus (ATCC 204305) • I) Aspergillus fumigatus (strain 322-384)

In test [3] the test system is Plasmodium falciparum (strain 3D7). Description: In vitro drug susceptibility assay, protozoon D (3[H]-hypoxanthine method). How it is done:
(§12) Plasmodium falciparum strain K1 and strain 3D7 parasites were cultured according to Trager W and Jensen JB (Science 1976, 193: 673-675). In vitro drug susceptibility assays with the test compounds were carried out according to Korsinczky M et al. (Antimicrobial agents and chemotherapy 2000, 44(8): 2100-2108) and Fivelman QL et al. (Antimicrobial agents and chemotherapy 2004, 48(11): 4097-4102) using a ^3[H]-hypoxanthine radioisotope method. ED50 values were calculated with Msxlfit (IDBS).
(§13) The following protozoa were assessed: • A) Trypanosoma cruzi (Tulahuan-LACZ amstigotes in PEM, Lorente SO et al., Antimicrobial agents and chemotherapy 2004, 48(8): 2937-2950; Buckner et al., Infection and Immunity 1999, 67(1): 403-409; Buckner et al., Antimicrobial Agents and Chemotherapy 1996, 40(11): 2592-2597) • B) Trypanosoma brucei rhodesiense (strain STIB900, Lorente SO et al., Antimicrobial agents and chemotherapy 2004, 48(8): 2937-2950; Habtemariam S, BMC Pharmacology 2003, 3:6) • C) Plasmodium falciparum (strain K1, Korsinczky M et al., Antimicrobial agents and chemotherapy 2000, 44(8): 2100-2108; Thaitong S and Beale GH, Trans. R. Soc. Trop. Med. Hyg. 1981, 75: 271-273; Trager W and Jensen JB, Science 1976, 193: 673-675) • D) Plasmodium falciparum (strain 3D7, Mu et al., PLoS Biology 2005, 3(10): e335)

The test system of test [4] is Cryptocoocus gattii (ATCC 32608). The experiment in a line: Anti-fungal susceptibility test (microdilution), fungus G. Conditions: fungus G; no visible growth after 72 hours at 35° C; read-out: MIC. How it is done:
as §9, §10, §11

For test [5], the system named is Cryptocoocus neoformans (strain H99). The experiment in a line: Anti-fungal susceptibility test (microdilution), fungus F. The settings on record: fungus F; no visible growth after 72 hours at 35° C; read-out: MIC. How it is done: as §9, §10, §11
For test [6], the system named is KB/HeLa (ATCC CCL17, human cervix carcinoma). Description: XTT cytotoxicity assay, KB/HeLa cells. Conditions: 48 h, 2 days of continuous drug exposure. Here is the method:
as §1, §2, §3, §4, §5, §6, §7, §8

For test [7], the system named is Plasmodium falciparum (strain K1). The experiment in a line: In vitro drug susceptibility assay, protozoon C (3[H]-hypoxanthine method). Here is the method:
as §12, §13

The test system of test [8] is Aspergillus fumigatus (strain 322-384). The experiment in a line: Anti-fungal susceptibility test (microdilution), fungus I. The settings on record: Aspergillus fumigatus, no visible growth after 72 hours at 35° C, read-out: MIC. Here is the method: as §9, §10, §11
The subject of test [9] is Candida albicans (ATCC 10231). Description: Anti-fungal susceptibility test (microdilution), fungus A. The settings on record: Candida albicans, ATCC10231, no visible growth after 48 hours at 35° C, read-out: MIC. How it is done:
as §9, §10, §11

Test [10] deals with Cryptocoocus neoformans (ATCC 90112). Description: Anti-fungal susceptibility test (microdilution), fungus E. Conditions: fungus E; no visible growth after 72 hours at 35° C; read-out: MIC. Here is the method:
as §9, §10, §11

Test [11] relates to Candida albicans (strain TS3). The experiment in a line: Anti-fungal susceptibility test (microdilution), fungus C. The settings on record: Candida albicans, no visible growth after 48 hours at 35° C, read-out: MIC. Here is the method: as §9, §10, §11

Converted amounts (≈) assume the structure as drawn.

Turning to `CCCCCCCCCCCCCCCCOP(=O)([O-])OCC[N+]1(C)CCCCC1` [Compound 2, Phosphoric acid 2-(1-methyl-piperidin-1-yl)-ethyl ester hexadecyl ester], the IC50 came to 40.9 µM in test [1] and 5.02 µM in test [6]. For the same compound, the minimal inhibitory concentration (MIC) is 1 µg/mL (≈ 2.23 µM) in test [2]; 0.75 µg/mL (≈ 1.68 µM) in test [4]; 1 µg/mL (≈ 2.23 µM) in test [5]; 2 µg/mL (≈ 4.47 µM) in test [8]; 1 µg/mL (≈ 2.23 µM) in [9]; 1.5 µg/mL (≈ 3.35 µM) in [10]. Further, the MIC in test [11] worked out at 1.5 µg/mL (≈ 3.35 µM). In addition, the “ED50 (µg/mL)” value is given as 2,21 µg/mL in test [3] and 19,36 µg/mL in test [7].
